Assay results reported in patent publication US6924302B2, “Substituted triazole diamine derivatives as kinase inhibitors” (Ortho McNeil Pharmaceutical, Inc., priority 2000, dated 2005).
Read-outs that look alike come from different tables or passages of the source.

How the values were obtained:
[1] = molecular target: T1, PDGF-R (platelet derived growth factor receptor) beta subunit kinase domain (Homo sapiens, UniProt P09619); test: Kinase Selectivity Assay PDGF-R; type: biochemical; details: Kinase Selectivity, Tables 2a-2k; read-out: PDGF-R kinase IC50
T1 construct: nucleotides 1874-3507 of the human PDGF-R beta subunit kinase domain; polyhistidine (N)
T1 sequence (P09619 564-1106): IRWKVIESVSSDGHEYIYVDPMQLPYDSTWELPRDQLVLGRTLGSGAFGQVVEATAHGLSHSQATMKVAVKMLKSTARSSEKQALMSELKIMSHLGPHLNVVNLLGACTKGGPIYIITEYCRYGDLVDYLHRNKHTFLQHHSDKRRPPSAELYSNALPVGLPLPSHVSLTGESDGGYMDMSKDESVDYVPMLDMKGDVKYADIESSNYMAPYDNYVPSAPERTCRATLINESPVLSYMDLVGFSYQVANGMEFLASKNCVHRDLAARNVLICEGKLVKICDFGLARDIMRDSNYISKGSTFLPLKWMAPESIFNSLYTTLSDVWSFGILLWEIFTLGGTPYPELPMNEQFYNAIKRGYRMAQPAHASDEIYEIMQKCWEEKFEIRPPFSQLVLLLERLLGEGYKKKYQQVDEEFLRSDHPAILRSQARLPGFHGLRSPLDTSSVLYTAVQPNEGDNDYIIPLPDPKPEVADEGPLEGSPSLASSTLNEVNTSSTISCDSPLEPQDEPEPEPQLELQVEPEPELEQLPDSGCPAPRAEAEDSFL
Method: (§1) Assays to test compound inhibition of other kinases were preformed using methods that measure the amount of phosphorylation of a biotinylated peptide substrate. Biotinylated peptide substrates were selected from the literature as appropriate for the enzyme being evaluated. […] Assay conditions vary slightly for each protein kinase, for example, insulin receptor kinase requires 10 mM MnCl2 for activity and Calmodulin-dependent protein kinase requires calmodulin and 10 mM CaCl2. These assay conditions are known in the art. The reaction mixture was dispensed into the wells of a streptavidin coated Flashplate and 1 μl drug stock in 100% DMSO was added to a 100 μl reaction volume resulting in a final concentration of 1% DMSO on the reaction. Enzyme was diluted in 50 mM Tris-HCl pH=8.0, 0.1% BSA and add to each well. The reaction was incubated for one hour at 30° C. in the presence of compound. After one hour the reaction mix was aspirated from the plate and the plate was washed with PBS containing 100 mM EDTA. The plate was read on a scintillation counter to determine ^33P-γ-ATP incorporated into the immobilized peptide. Test compounds were assayed in duplicate at 8 concentrations [100 uM, 10 uM, 1 uM, 100 nM, 10 nM, 1 nM, 100 pM, 10 pM]. A maximum and minimum signal for the assay was determined on each plate. The IC50 was calculated from the dose response curve of the percent inhibition of the maximum signal in the assay according to the formula [max signal—background/test compound signal—background (100)=% inhibition] by graphing the percent inhibition against the log concentration of test compound. Known inhibitor compounds appropriate for the kinase being assayed were also included on each plate.
(§2) CDK2 in complex with cyclin A is commercially available (Upstate Biotech, Lake Placid, N.Y.). The CDK4 complex was composed of a mouse CDK4 protein and a mouse Cyclin D1 protein (The mouse CDK4 protein was genetically fused to an N-terminal Flag-epitope tag and the mouse Cyclin D1 protein was fused with an N-terminal AU-1 epitope tag. The genes encoding these proteins were transferred to commercially available baculoviral vectors. The recombinant CDK4/D1 complex was then made by co-infecting commercially available insect cells with viruses carrying these two constructs). […] ERK-1 protein (Discontinued from Calbiochem). EGFR (epidermal growth factor receptor) is purified from human A431 cell membranes (Sigma, St. Louis, Mo., Cat.# E3641).

FGF-R2 = FGF-R2 (Homo sapiens, UniProt P21802); test: Kinase Selectivity Assay FGF-R2; type: biochemical; details: Tables 2a-2k
Sequence of FGF-R2 (P21802 22-821, species assumed): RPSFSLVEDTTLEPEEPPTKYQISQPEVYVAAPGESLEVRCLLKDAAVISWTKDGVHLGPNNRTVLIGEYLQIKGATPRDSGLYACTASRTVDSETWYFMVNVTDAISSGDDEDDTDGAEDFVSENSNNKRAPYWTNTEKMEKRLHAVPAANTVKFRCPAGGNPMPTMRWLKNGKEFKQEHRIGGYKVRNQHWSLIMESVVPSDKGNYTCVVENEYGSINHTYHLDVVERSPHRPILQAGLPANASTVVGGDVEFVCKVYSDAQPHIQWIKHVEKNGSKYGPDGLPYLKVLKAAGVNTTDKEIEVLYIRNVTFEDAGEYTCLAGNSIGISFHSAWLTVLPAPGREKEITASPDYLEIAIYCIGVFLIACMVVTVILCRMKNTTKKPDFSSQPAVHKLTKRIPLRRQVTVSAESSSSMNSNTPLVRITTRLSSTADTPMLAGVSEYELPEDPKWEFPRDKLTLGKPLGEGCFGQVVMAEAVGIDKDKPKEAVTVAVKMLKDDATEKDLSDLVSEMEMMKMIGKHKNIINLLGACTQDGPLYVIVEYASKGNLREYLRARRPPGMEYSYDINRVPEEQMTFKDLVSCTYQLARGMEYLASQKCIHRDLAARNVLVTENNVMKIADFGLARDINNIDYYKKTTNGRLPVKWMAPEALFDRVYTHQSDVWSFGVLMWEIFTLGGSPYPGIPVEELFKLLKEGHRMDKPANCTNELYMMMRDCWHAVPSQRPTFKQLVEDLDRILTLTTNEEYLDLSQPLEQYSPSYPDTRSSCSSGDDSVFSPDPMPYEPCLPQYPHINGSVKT
Method: as §1

Protein Kinase A = molecular target: T2, Protein Kinase A (Bos taurus, UniProt P00517); test: Kinase Selectivity Assay Protein Kinase A; type: biochemical, bovine; details: Kinase Selectivity, Tables 2a-2k; read-out: PKA IC50
T2 construct: purified from bovine heart; purchased Upstate Biotech 14-114; host or cells: bovine heart
Method: as §1, §2

[2] = system: HeLa cervical adenocarcinoma; test: Inhibition of Cell Proliferation (14C-thymidine incorporation), HeLa; type: cell-based; details: Homo sapiens, HeLa cell line
Method: (§3) The ability of a test compound to inhibit the proliferation of cell growth was determined by measuring incorporation of ^14C-labelled thymidine into newly synthesized DNA within the cells. This method was used on cell lines derived from carcinomas originating from several tissues such as HeLa cervical adenocarcinoma (American Type Culture Collection (ATCC), Virginia, Cat. #CCL-2), A375 malignant melanoma (ATCC CRL-1619), SK-OV-3 ovarian adenocarcinoma (ATCC HTB-77) HCT-116 colon carcinoma (CCL-247), PC-3 prostate adenocarcinoma (ATCC CRL-1435), and MDA-MB-231 (Xenogen Corp.) In this way the effect of a compound on cell growth of cells with many different phenotypes can be determined. Cells were trypsinized and counted and 3000-8000 cells were added to each well of a 96-well CytoStar tissue culture treated scintillating microplate (Amersham #RPNQ0160) in complete medium in a volume of 100 μl. Cells were incubated for 24 hours in complete medium at 37° C. in an atmosphere containing 5% CO2. Next, 1 μl of test compound in 100% DMSO was added to the wells of the plate. DMSO only was added to control wells. Cells were incubated for 24 more hours in complete medium at 37° C. in an atmosphere containing 5% CO2. Methyl ^14C-thymidine 56 mCi/mmol (NEN #NEC568 or Amersham #CFA532) was diluted in complete medium and 0.2 uCi/well was added to each well of the CytoStar plate in a volume of 20 μl. The plate was incubated for 24 hours at 37° C. plus 5% CO2 in drug plus ^14C-thymidine. The contents of the plate were discarded into a ^14C radioactive waste container by inverting the plate and the plate was washed twice with 200 μl PBS. 200 μl of PBS is added to each well. The top of the plate was sealed with a transparent plate sealer and a white plate backing sealer (Packard #6005199) was applied to the bottom of the plate. The degree of methyl ^14C-thymidine incorporation was quantified on a Packard Top Count.

A375 malignant melanoma = test: Inhibition of Cell Proliferation (14C-thymidine incorporation), A375; type: cell-based; details: Homo sapiens, A-375, A375 cell line
Method: as §3

Insulin Receptor Kinase = Insulin Receptor Kinase (Homo sapiens, UniProt P06213); test: Kinase Selectivity Assay Insulin Receptor Kinase; type: biochemical; details: Kinase Selectivity, Tables 2a-2k; read-out: Insulin R Kinase IC50
Sequence of Insulin Receptor Kinase (P06213 980-1352): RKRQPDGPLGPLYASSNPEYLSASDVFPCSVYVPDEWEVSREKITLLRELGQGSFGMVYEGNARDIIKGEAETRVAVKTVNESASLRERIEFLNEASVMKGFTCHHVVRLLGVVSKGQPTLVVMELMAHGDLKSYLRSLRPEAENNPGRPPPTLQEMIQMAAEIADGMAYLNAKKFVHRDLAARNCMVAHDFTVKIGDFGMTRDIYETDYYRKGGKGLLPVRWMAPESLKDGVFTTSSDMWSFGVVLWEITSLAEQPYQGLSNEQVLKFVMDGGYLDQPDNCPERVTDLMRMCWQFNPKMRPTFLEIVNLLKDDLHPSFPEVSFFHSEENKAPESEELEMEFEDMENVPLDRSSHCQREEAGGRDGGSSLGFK
Method: as §1, §2

[3] = molecular target: T3, HER2 (human epidermal growth factor receptor-2) (Homo sapiens, UniProt P04626); test: Kinase Selectivity Assay HER2; type: biochemical
T3 construct: begins at amino acid 676 followed by the remainder of the HER2 cytoplasmic domain; polyhistidine (N)
T3 sequence (P04626 676-1255 limits assumed): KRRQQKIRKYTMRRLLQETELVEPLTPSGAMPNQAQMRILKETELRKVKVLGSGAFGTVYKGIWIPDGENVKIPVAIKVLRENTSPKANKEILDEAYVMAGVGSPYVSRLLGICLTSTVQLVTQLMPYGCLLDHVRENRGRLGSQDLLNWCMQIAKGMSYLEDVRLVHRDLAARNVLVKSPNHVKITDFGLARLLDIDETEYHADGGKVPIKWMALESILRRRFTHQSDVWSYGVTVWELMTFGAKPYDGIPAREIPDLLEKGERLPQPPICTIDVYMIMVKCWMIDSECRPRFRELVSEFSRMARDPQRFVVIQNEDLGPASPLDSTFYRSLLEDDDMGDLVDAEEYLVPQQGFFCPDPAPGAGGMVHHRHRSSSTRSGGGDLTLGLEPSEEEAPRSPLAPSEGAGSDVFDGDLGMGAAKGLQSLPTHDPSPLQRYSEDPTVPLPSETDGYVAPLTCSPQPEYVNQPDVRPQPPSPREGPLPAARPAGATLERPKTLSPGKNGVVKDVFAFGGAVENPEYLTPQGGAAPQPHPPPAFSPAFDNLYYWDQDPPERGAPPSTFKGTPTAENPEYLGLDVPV
In short: (§4)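 Biotinylated peptide phosphorylation measured as ^33P-γ-ATP incorporation on streptavidin plates after 1 h at 30° C, 1% DMSO final, enzyme in 50 mM Tris-HCl pH 8.0, 0.1% BSA. Compounds in duplicate at 8 concentrations, 100 uM to 10 pM. IC50 from percent inhibition versus log concentration.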

[4] = molecular target: T4, Casein Kinase 1 (CK1 delta isoform) (Rattus norvegicus, UniProt Q06486); test: Kinase Selectivity Assay Casein Kinase 1; type: biochemical; details: Tables 2a-2k, read-out: Caseine Kinase 1 IC50
T4 construct: a truncation at amino acid 318 of the C-terminal portion of the rat CK1 delta isoform; purchased New England Biolabs 6030; host or cells: E. coli
T4 sequence (Q06486 1-317): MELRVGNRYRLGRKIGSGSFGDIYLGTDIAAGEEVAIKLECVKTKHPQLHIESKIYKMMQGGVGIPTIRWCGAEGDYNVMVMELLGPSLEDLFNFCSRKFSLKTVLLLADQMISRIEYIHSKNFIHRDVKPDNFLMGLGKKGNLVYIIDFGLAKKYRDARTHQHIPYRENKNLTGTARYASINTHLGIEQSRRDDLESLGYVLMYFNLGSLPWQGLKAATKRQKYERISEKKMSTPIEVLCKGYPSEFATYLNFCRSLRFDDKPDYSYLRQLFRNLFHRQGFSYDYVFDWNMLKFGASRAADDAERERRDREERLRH
Method: as §1, §2

[5] = system: PC-3 prostate adenocarcinoma; test: Inhibition of Cell Proliferation (14C-thymidine incorporation), PC-3; type: cell-based; details: Homo sapiens, PC-3 cell line
Method: as §3

[6] = molecular target: T5, Calmodulin Kinase (calmodulin-dependent protein kinase 2) (Rattus norvegicus, UniProt P11275); test: Kinase Selectivity Assay Calmodulin Kinase; type: biochemical; details: Kinase Selectivity, Tables 2a-2k; read-out: Calmodulin Kinase 2 IC50
T5 construct: a truncated version of the alpha subunit of the rat protein; purchased New England Biolabs 6060; host or cells: insect cells
Method: as §1, §2

[7] = molecular target: T6, MAP Kinase (ERK-2 isoform) (Rattus norvegicus, UniProt P63086); test: Kinase Selectivity Assay MAP Kinase (ERK-2); type: biochemical; details: Kinase Selectivity, Tables 2a-2k; read-out: ERK 2 IC50
T6 construct: polyhistidine (N); host or cells: E. coli
T6 sequence (P63086 whole entry, canonical isoform): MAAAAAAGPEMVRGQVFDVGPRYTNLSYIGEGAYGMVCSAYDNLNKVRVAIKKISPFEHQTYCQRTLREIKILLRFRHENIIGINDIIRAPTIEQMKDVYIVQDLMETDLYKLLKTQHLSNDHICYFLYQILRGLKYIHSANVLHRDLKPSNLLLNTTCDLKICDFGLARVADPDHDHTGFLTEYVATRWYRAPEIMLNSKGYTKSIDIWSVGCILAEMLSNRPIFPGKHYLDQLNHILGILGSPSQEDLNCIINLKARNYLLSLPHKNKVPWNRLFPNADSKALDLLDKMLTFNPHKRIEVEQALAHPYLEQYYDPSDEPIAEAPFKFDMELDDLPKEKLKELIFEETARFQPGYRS
Method: as §1, §2

[8] = molecular target: T7, Glycogen Synthase Kinase-3 (beta isoform) (Oryctolagus cuniculus, UniProt G1T8E2); test: Kinase Selectivity Assay Glycogen Synthase Kinase-3; type: biochemical, rabbit; details: Kinase Selectivity, Tables 2a-2k; read-out: GSK-3 IC50
T7 construct: purchased New England Biolabs 6040; host or cells: E. coli
T7 sequence (G1T8E2 1-432): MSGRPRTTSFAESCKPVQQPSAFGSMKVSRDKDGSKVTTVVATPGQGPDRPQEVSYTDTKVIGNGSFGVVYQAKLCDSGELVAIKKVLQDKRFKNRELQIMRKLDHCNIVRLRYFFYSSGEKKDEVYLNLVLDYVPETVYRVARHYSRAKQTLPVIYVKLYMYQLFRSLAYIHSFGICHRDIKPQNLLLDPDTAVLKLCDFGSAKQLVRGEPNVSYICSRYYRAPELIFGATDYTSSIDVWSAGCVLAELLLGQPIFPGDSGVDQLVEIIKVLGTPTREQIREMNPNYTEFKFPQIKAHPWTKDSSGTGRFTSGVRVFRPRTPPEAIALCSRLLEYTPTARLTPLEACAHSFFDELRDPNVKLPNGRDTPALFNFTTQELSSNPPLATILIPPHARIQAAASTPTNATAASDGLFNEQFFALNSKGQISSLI
In short: as §4

[9] = molecular target: T8, Casein Kinase 2 (alpha and beta subunits) (Homo sapiens, UniProt P68400); test: Kinase Selectivity Assay Casein Kinase 2; type: biochemical; details: Kinase Selectivity, Tables 2a-2k; read-out: Caseine Kinase 2 IC50
T8 construct: purchased New England Biolabs 6010; host or cells: E. coli
T8 sequence (P68400 whole entry): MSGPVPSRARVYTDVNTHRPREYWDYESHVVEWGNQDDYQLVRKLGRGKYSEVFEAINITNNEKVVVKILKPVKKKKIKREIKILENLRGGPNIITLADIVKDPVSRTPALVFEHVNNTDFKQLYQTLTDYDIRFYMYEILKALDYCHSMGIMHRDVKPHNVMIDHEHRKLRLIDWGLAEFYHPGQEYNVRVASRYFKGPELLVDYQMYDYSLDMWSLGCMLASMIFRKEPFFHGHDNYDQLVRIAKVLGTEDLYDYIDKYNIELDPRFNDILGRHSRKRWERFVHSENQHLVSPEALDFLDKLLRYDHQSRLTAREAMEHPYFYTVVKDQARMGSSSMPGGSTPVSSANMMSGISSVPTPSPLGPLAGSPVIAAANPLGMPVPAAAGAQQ
T8 sequence (P67870 whole entry partner): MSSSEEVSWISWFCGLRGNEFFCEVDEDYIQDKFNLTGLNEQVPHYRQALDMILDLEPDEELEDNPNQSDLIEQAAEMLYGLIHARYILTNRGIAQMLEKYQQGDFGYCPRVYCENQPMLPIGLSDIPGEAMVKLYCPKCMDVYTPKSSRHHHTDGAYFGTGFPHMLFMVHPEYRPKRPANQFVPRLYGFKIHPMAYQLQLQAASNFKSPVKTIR
Method: as §1, §2

HCT-116 colon carcinoma = test: Inhibition of Cell Proliferation (14C-thymidine incorporation), HCT-116; type: cell-based; details: Homo sapiens, HCT-116 cell line
Method: as §3

[10] = molecular target: PKC (protein kinase-C), gamma or beta isoform; test: Kinase Selectivity Assay PKC; type: biochemical, human; details: Tables 2a-2k
Method: as §1
CDK2 in complex with cyclin A is commercially available (Upstate Biotech, Lake Placid, N.Y.). […]

[11] = molecular target: T9, VEGF-R (vascular endothelial growth factor receptor-2) (Rattus norvegicus, UniProt O08775); test: VEGF-R Screening Assay; type: biochemical; details: read-out: VEGF-R IC50
T9 construct: polyhistidine (6xHIS) (N)
T9 sequence (O08775 786-1343): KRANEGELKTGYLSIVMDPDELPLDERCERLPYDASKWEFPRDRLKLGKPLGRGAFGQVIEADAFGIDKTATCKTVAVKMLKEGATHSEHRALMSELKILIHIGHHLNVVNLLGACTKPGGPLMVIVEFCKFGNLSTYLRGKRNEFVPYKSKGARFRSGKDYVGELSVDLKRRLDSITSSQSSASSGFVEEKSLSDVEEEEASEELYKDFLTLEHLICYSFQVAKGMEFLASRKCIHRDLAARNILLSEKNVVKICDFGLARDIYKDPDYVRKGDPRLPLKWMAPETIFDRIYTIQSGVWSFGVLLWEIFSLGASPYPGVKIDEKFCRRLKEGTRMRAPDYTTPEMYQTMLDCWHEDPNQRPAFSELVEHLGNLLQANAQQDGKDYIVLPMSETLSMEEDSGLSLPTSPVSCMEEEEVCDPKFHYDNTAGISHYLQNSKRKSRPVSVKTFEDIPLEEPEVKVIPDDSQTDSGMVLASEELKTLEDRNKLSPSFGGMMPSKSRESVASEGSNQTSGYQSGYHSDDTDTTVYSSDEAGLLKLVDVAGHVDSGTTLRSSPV

[12] = molecular target: T10, CDK2 in complex with cyclin A (Homo sapiens, UniProt P24941); test: Kinase Selectivity Assay CDK2; type: biochemical; details: Table 1
T10 construct: purchased Upstate Biotech
In short: as §4

[13] = Kinase Selectivity, Tables 2a-2k, read-out: HER2 Kinase IC50

CNS(=O)(=O)c1ccc(Nc2nc(N)n(C(=O)c3sc(C)cc3C)n2)cc1 [Cpd 83, 4-[[5-amino-1-[(3,5-dimethyl-2-thienyl)carbonyl]-1H-1,2,4-triazol-3-yl]amino]-N-methyl-benzenesulfonamide]
IC50 [1]: 0.113 µM
IC50 (FGF-R2): 0.022 µM
IC50 (Protein Kinase A): > 100 µM
IC50 [2]: 122 nM
IC50 (A375 malignant melanoma): 556 nM
IC50 (Insulin Receptor Kinase): > 10 µM
IC50 [3, 13]: 0.013 µM
IC50 ([3]; Table 1, read-out: HER2 IC50): 0.013 µM
IC50 [4]: 0.275 µM
IC50 [5]: 12 nM
IC50 [6]: > 100 µM
IC50 [7]: > 100 µM
IC50 [8]: 0.007 µM
IC50 [9]: > 100 µM
IC50 (HCT-116 colon carcinoma): 192 nM

Cc1cc(C)c(C(=O)n2nc(Nc3ccc(-n4ccnc4)cc3)nc2N)s1 [Cpd 92, 1-[(3,5-dimethyl-2-thienyl)carbonyl]-N^3-[4-(1H-imidazol-1-yl)phenyl]-1H-1,2,4-triazole-3,5-diamine]
IC50 [1]: 0.282 µM
IC50 (FGF-R2): 0.242 µM
IC50 (Protein Kinase A): > 100 µM
IC50 [2]: 269 nM
IC50 (Insulin Receptor Kinase): 3.08 µM
IC50 [4]: > 10 µM
IC50 [5]: 1120 nM
IC50 [6]: 19.7 µM
IC50 [7]: > 100 µM
IC50 [8]: 0.021 µM
IC50 [9]: > 100 µM

Cc1ccsc1C(=O)n1nc(Nc2ccc(-n3cncn3)cc2)nc1N [Cpd 99, 1-[(3-methyl-2-thienyl)carbonyl]-N^3-[4-(1H-1,2,4-triazol-1-yl)phenyl]-1H-1,2,4-triazole-3,5-diamine]
IC50 [1]: 0.385 µM
IC50 [10]: > 100 µM
IC50 [2]: 3350 nM
IC50 (Insulin Receptor Kinase): > 100 µM
IC50 [4]: > 1 µM
IC50 [5]: 1690 nM
IC50 [6]: > 100 µM
IC50 [7]: > 100 µM
IC50 ([11]; Kinase Selectivity, Tables 2a-2k): 0.098 µM
IC50 ([11]; Table 1): 0.098 µM
IC50 [8]: 0.03 µM
IC50 [9]: > 100 µM

Cc1ccsc1C(=O)n1nc(Nc2ccc(NS(C)(=O)=O)cc2)nc1N [Cpd 109]
IC50 [1]: 0.413 µM
IC50 (FGF-R2): 0.244 µM
IC50 (Protein Kinase A): > 100 µM
IC50 [2]: 479 nM
IC50 (Insulin Receptor Kinase): 2.76 µM
IC50 [4]: 1.18 µM
IC50 [5]: 307 nM
IC50 [6]: > 100 µM
IC50 [7]: > 10 µM
IC50 [8]: 0.039 µM
IC50 [9]: > 10 µM
IC50 [12]: 0.021 µM
IC50 (HCT-116 colon carcinoma): 51 nM

CCc1ccc(C(=O)n2nc(Nc3ccc(S(=O)(=O)Nc4ccccn4)cc3)nc2N)s1 [Cpd 119]
IC50 [1]: > 10 µM
IC50 (Protein Kinase A): > 100 µM
IC50 [10]: > 100 µM
IC50 [3, 13]: 1 µM
IC50 ([3]; Table 1, read-out: HER2 IC50): ~1 µM
IC50 [4]: 0.757 µM
IC50 [6]: > 100 µM
IC50 [7]: > 100 µM
IC50 [8]: 0.006 µM
IC50 [9]: > 100 µM
IC50 [12]: 0.003 µM
